# In patent US8889680B2, “Treatment or prevention of fungal infections with PDK1 inhibitors” (priority 2010, dated 2014):
# Legend:
# C. albicans cells = test: Propidium iodide uptake; assay type: cell-based, Candida albicans; details: KP-372-1 at MIC, 2 hours
# Protocol: Bars indicate mean fold change in Miller units of β-galactosidase activity relative to logarithmic phase cells without calcofluor or PKI. Error bars indicate standard deviation of three independent trials performed in triplicate. […] The percentage of cells with PI uptake was determined by fluorescence.
# A hallmark phenotype of mutations and drugs that interfere with CWI signaling is that their effects can be suppressed by the addition of osmotic support such as 1M soribitol to the culture medium. By equalizing the osmotic gradient across the plasma membrane, cell integrity is less dependent upon an intact cell wall.
# C. albicans = test: Checkerboard interaction assay (FIC); assay type: cell-based, Candida albicans
# Protocol: This assay allows one to compare the activity of a molecule alone and in combination with another molecule by generating a fractional inhibitory concentration (FIC). FIC for two drugs (A & B) is calculated as follows: […]. FIC values less than 0.5 are considered synergistic; between 0.5 and 1 are additive; between 1-2 are indifferent; and above 2 are antagonistic. […] Therefore, KP-372-1 is not synergistic with either agent.
# [1] = tested on: eisosomes in S. cerevisiae cells; test: Eisosome pattern by fluorescence microscopy (Pil1-GFP); assay type: cell-based; details: KP-372-1 (1/2 MIC), within one hour of treatment, versus DMSO
# Protocol: Light and fluorescence microscopy was performed using a Nikon ES80 epi-fluorescence microscope equipped with a CoolSnap CCD camera. Images were collected using NIS-Elements Software and processed in PhotoShop. All images were collected with identical exposure settings and equally processed with respect to tone and contrast.
# The micrographs of the KP-372-1-treated cells closely match those previously reported (Luo et al., J. Biol. Chem. 283:10433-44 (2008)) and, consequently, support a model in which Pil1 phosphorylation is required for eisosome assembly/stabilization.
# C. neoformans = test: Antifungal susceptibility (microdilution MIC), C. neoformans; assay type: cell-based, Cryptococcus neoformans
# Protocol: (§1) The antifungal activity of protein kinase inhibitors was determined using the Clinical and Laboratory Science Institute microdilution protocol M-27A2. Biofilm antifungal activity was determined using the protocol of Pierce et al. and is reported as MIC50S (Pierce et al., Nat. Protoc. 3:1494-1500 (2008)). Disk diffusion assays were performed as described previously (Roelants et al., Microbiology 150:3289-304 (2004)).
# (§2) (FIG. 3A). […] Since the echinocandin class of cell wall-targeted 1,3-β-glucan synthase inhibitors is not active against C. neoformans, this represents one of the few cell wall-targeted molecules with activity against this important pathogen.
# C. glabrata = test: Antifungal susceptibility (microdilution MIC), C. glabrata; assay type: cell-based, Candida glabrata
# Protocol: as §1, §2
structure (smiles),measurement,setting,value
O=C1c2ccccc2-c2nc3nnnn3nc21.O=C1c2ccccc2-c2nn3nnnc3nc21 [KP-372-1],cells stained by propidium iodide relative to YPD,C. albicans cells; 1M sorbitol-supplemented YPD,five-fold fewer cells were stained
same,percentage of cells stained by propidium iodide,"C. albicans cells; 37° C., YPD",36%
same,FIC (fractional inhibitory concentration),C. albicans; combination with caspofungin,0.5
same,FIC (fractional inhibitory concentration),C. albicans; combination with fluconazole,1.0
same,number of peripheral eisosomes,[1],dramatically decreased
same,antifungal activity (in words),C. neoformans,highly active
same,antifungal activity (in words),C. glabrata,highly active
